Laboratory results as given in patent US7803930B2, “Antisense modulation of apolipoprotein B-expression” (Isis Pharmaceuticals, Inc., priority 2002, dated 2010).
In the oligonucleotide strings, read from the 5' end, every base follows the letter of its sugar. An asterisk marks phosphorothioate; unmarked linkages are phosphodiester. Other units and linkages are bracketed, terminal groups are in braces. A string of capitals states the bases alone. e = 2'-O-(2-methoxyethyl) (MOE); [5mC] = 5-methylcytosine; d = 2'-deoxy (DNA)

How the values were obtained:
[1] = ob/ob mice (Example 50): cholesterol, lipid, triglyceride, liver enzyme and glucose levels; format: in vivo, mouse; conditions: high fat high cholesterol diet, 50 mg/kg i.p. twice a week, six weeks
Outline: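 Ob/ob mice on 60% kcal fat diet with 0.15% cholesterol received 50 mg/kg oligonucleotide i.p. twice weekly for six weeks, with saline and control oligonucleotides.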

[2] = Lean mice, 6 weeks (Example 66): serum lipids and liver enzymes; format: in vivo, mouse; conditions: for HDL-cholesterol / LDL-cholesterol / Liver Enzymes ALT / Liver Enzymes AST / Total cholesterol / Triglycerides: serum
Method: The accumulation of lipids in liver tissue was also evaluated in lean mice. Male […] mice (Charles River Laboratories (Wilmington, Mass.) at 6 to 7 weeks of age were maintained on a standard rodent diet and were treated twice weekly with intraperitoneal injections of 25 or 50 mg/kg 147764 (SEQ ID NO: 109) or 147483 (SEQ ID NO: 79) for 6 weeks. Saline treated animals served as controls. Each treatment group was comprised of 4 animals. Animals were sacrificed after the 6 week treatment period, at which point liver tissue and serum were collected.
Total cholesterol, LDL-cholesterol, HDL-cholesterol and triglycerides in serum were measured by routine clinical analysis using an Olympus Clinical Analyzer (Olympus America Inc., Melville, N.Y.). The liver enzymes ALT and […] in serum were also measured using the Olympus Clinical Analyzer.

[3] = system: human apolipoprotein B protein; assay: Apolipoprotein B protein in primary human hepatocytes, immunoblot; format: cell-based; conditions: 50, 150 and 300 nM, 24 hours, 48 hours
Method: Protein samples from 50, 150 and 300 nM doses after 24 hours and 150 and 300 nM doses after 48 hours were subjected to immunoblot analysis as described by other examples herein, using a human apolipoprotein B protein specific antibody purchased from US Biological (Swampscott, Mass.).

[4] = system: apolipoprotein B protein; assay: Apolipoprotein B protein in primary Cynomolgous monkey hepatocytes, immunoblot; format: cell-based
Method: Additionally, protein was isolated from oligonucleotide-treated primary Cynomolgous monkey hepatocytes and subjected to immunoblot analysis to further assess apolipoprotein B protein expression. Immunoblotting was performed as described herein, using an antibody to human apolipoprotein B protein (US Biologicals, Swampscott, Mass.).

[5] = system: human apolipoprotein B mRNA; assay: Transgenic mice dosing study (Example 52): human apolipoprotein B mRNA in liver; format: in vivo, human transgene in mouse; conditions: for % Inhibition, human apolipoprotein B mRNA: liver, 12 weeks
Method: A long-term study of inhibition of human apolipoprotein B by ISIS 301012 in C57BL/6NTac-TgN(APOB100) mice (Taconic, Germantown, N.Y.) was conducted for a 3 month period. Mice were dosed intraperitoneally twice a week with 10 or 25 mg/kg ISIS 301012 (SEQ ID No: 247) for 12 weeks. Saline-injected animals served as controls. Each treatment group comprised 4 animals.
The study was terminated forty eight hours after the final injections in the eighth week of treatment, when animals were sacrificed and evaluated for target mRNA levels in liver, apolipoprotein B protein levels in liver and serum cholesterol and liver enzyme levels. In addition, the expression of endogenous mouse apolipoprotein B levels in liver was measured to evaluate any effects of ISIS 301012 on mouse apolipoprotein B mRNA expression.
Human and mouse apolipoprotein B mRNA levels in livers of animals treated for 12 weeks were measured by real-time PCR as described herein. Each result represents the average of data from 4 animals.

## 147764 (eG*eT*e[5mC]*e[5mC]*e[5mC]*dT*dG*dA*dA*dG*dA*dT*dG*dT*d[5mC]*eA*eA*eT*eG*e[5mC]) [compound 147764]
[1]
  Glucose: 209.2 mg/dL
  Lipoproteins CHOL: 286.3 mg/dL
  Lipoproteins TRIG: 101.2 mg/dL
  Liver Enzymes ALT: 835.0 IU/L
  Liver Enzymes AST: 406.5 IU/L
  glucose, cholesterol, and triglyceride levels: able to lower

## GTCCCTGAAGATGTCAATGC (2'-MOE gapmer, further chemistry not given here) [ISIS 147764]
[2]; 25 or 50 mg/kg i.p. twice weekly
  serum lipids relative to saline-treated control animals: lowers serum lipids
[2]; 25 mg/kg i.p. twice weekly
  HDL-cholesterol: 79 mg/dL
  LDL-cholesterol: 29 mg/dL
  Liver Enzymes ALT: 47 IU/L
  Liver Enzymes AST: 81 IU/L
  Total cholesterol: 114 mg/dL
  Triglycerides: 80 mg/dL
[2]; 50 mg/kg i.p. twice weekly
  HDL-cholesterol: 38 mg/dL
  LDL-cholesterol: 18 mg/dL
  Liver Enzymes ALT: 48 IU/L
  Liver Enzymes AST: 101 IU/L
  Total cholesterol: 57 mg/dL
  Triglycerides: 30 mg/dL

## ISIS 301012: SEQ ID NO: 247, antisense oligonucleotide targeted to human apolipoprotein B (antisense GCCTCAGTCTGCTTCGCACC; chemistry not given here)
[3]
  apolipoprotein B protein in human hepatocytes (immunoblot): reduced in a dose-dependent manner
[4]
  apolipoprotein B expression (immunoblot): substantial reduction
[5]; 12 weeks of treatment
  reduction of human apolipoprotein B mRNA in liver: ≤ 75%
[5]; 10 mg/kg i.p. twice a week
  % Inhibition, human apolipoprotein B mRNA: 65%
[5]; 25 mg/kg i.p. twice a week
  % Inhibition, human apolipoprotein B mRNA: 75%
